Source: patent US12157730B2, “Heteroaryl derivative, method for producing same, and pharmaceutical composition comprising same as effective component” (VORONOI INC., priority 2019, dated 2024)

Target: T1, Ba/F3 cell EGFR Exon20 ins NPH (Homo sapiens, UniProt P00533, INS773NPH)
T1 construct: expressed in transfected cells; host or cells: Ba/F3
Assay: Ba/F3 cell proliferation suppression, EGFR Exon20 ins NPH
Format: cell-based
Settings: GI50 class; Ba/F3 cell line with NPH inserted at Exon20 of EGFR; 72 hours
In short: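 Growth suppression determined as GI50 following 72 h exposure across 12 concentrations up to 50 um, with viability by luminescent ATP assay (CellTiter-Glo).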

SMILES	Ba/F3 (NPH) Activity
C=CC(=O)Nc1cc(Nc2cc(N3OCC[C@@H]3Cc3cccc(F)c3C)ncn2)c(OC)cc1N1CC[C@@H](N(C)C)C1 [compound 1002, N-(2-((R)-3-(dimethylamino)pyrolidine-1-yl)-5-((6-((S)-3-(3-fluoro-2-methylbenzyl)isoxazolidine-2-yl)pyrimidine-4-yl)amino)-4-methoxyphenyl) acrylamide]	A (GI50 < 50 nM)
C=CC(=O)Nc1cc(Nc2cc(N3OCC[C@@H]3Cc3cccc(Cl)c3Cl)ncn2)c(OC)cc1N1CCC(N2CCOCC2)CC1 [compound 979, N-(5-((6-((S)-3-(2,3-dichlorobenzyl)isoxazolidine-2-yl)pyrimidine-4-yl)amino)-4-methoxy-2-(4-morpholinopiperidine-1-yl)phenyl)acrylamide]	A (GI50 < 50 nM)
C=CC(=O)Nc1cc(Nc2cc(N3OCC[C@@H]3c3cc(F)ccc3F)ncn2)c(OC)cc1N1CCN(C)CC1 [compound 818, N-(5-((6-((R)-3-(2,5-difluorophenyl)isoxazolidine-2-yl)pyrimidine-4-yl)amino)-4-methoxy-2-(4-methylpiperazine-1-yl)phenyl)acrylamide]	A (GI50 < 50 nM)
C=CC(=O)Nc1cc(Nc2cc(N3OCC[C@@H]3c3cccc(OC)c3)ncn2)c(OC)cc1N1CCC(N2CCOCC2)CC1 [compound 775, N-(4-methoxy-5-((6-((R)-3-(3-methoxyphenyl)isoxazolidine-2-yl)pyrimidine-4-yl)amino)-2-(4-morpholinopiperidine-1-yl)phenyl)acrylamide]	A (GI50 < 50 nM)
C=CC(=O)Nc1cc(Nc2cc(N3OCC[C@H]3Cc3ccccc3)ncn2)c(OC)cc1N1CCN(C2CCCC2)CC1 [compound 977, N-(5-((6-((R)-3-benzylisoxazolidine-2-yl)pyrimidine-4-yl)amino)-2-(4-cyclopentylpiperazine-1-yl)-4-methoxyphenyl) acrylamide]	C (500 nM ≤ GI50 < 5000 nM)
C=CC(=O)Nc1cc(Nc2cc(N3OCC[C@@H]3Cc3cccc(F)c3)ncn2)c(OC)cc1N1CCC(N2CCN(C3CC3)[C@@H](C)C2)CC1 [compound 993, N-(2-(4-((S)-4-cyclopropyl-3-methylpiperazine-1-yl)piperidine-1-yl)-5-((6-((S)-3-(3-fluorobenzyl)isoxazolidine-2-yl)pyrimidine-4-yl)amino)-4-methoxyphenyl) acrylamide]	A (GI50 < 50 nM)
C=CC(=O)Nc1cc(Nc2cc(N3OCC[C@H]3Cc3ccccc3)ncn2)c(OC)cc1N1CCN(C)CC1 [compound 968, N-(5-((6-((R)-3-benzylisoxazolidine-2-yl)pyrimidine-4-yl)amino)-4-methoxy-2-(4-methylpiperazine-1-yl)phenyl)acrylamide]	C (500 nM ≤ GI50 < 5000 nM)
C=CC(=O)Nc1cc(Nc2cc(N3OCC[C@@H]3c3cc(F)ccc3F)ncn2)c(OC)cc1N1CCN(CC)CC1 [compound 849, N-(5-((6-((R)-3-(2,5-difluorophenyl)isoxazolidine-2-yl)pyrimidine-4-yl)amino)-2-(4-ethylpiperazine-1-yl)-4-methoxyphenyl) acrylamide]	A (GI50 < 50 nM)
C=CC(=O)Nc1cc(Nc2cc(N3OCC[C@@H]3c3ccc(F)c(Cl)c3)ncn2)c(OC)cc1N1CCC(N2CCN(CC)CC2)CC1 [Example 263, N-(5-((6-((R)-3-(3-chloro-4-fluorophenyl)isoxazolidine-2-yl)pyrimidine-4-yl)amino)-2-(4-(4-ethylpiperazine-1-yl)piperidine-1-yl)-4-methoxyphenyl) acrylamide]	A (GI50 < 50 nM)
C=CC(=O)Nc1cc(Nc2cc(N3OCC[C@@H]3c3ccc(C)nc3)ncn2)c(OC)cc1N1CCC(N2CCC(N3CCOCC3)CC2)CC1 [Example 235, N-(4-methoxy-5-((6-((R)-3-(6-methylpyridine-3-yl)isoxazolidine-2-yl)pyrimidine-4-yl)amino)-2-(4-morpholino-[1,4'-bipiperidine]-1'-yl)phenyl)acrylamide]	B (50 nM ≤ GI50 < 500 nM)
C=CC(=O)Nc1cc(Nc2cc(N3OCC[C@@H]3c3ccccc3)ncn2)c(OC)cc1N1CCC(N(C)CCN(C)C)CC1 [compound 735, N-(2-(4-((2-(dimethylamino)ethyl) (methyl)amino)piperidine-1-yl)-4-methoxy-5-((6-((R)-3-phenylisoxazolidine-2-yl)pyrimidine-4-yl)amino)phenyl) acrylamide]	A (GI50 < 50 nM)
C=CC(=O)Nc1cc(Nc2cc(N3OCC[C@@H]3c3ccc(Cl)c(Cl)c3)ncn2)c(OC)cc1N1CCOCC1 [compound 615, N-(5-((6-((R)-3-(3,4-dichlorophenyl)isoxazolidine-2-yl)pyrimidine-4-yl)amino)-4-methoxy-2-morpholinophenyl) acrylamide]	A (GI50 < 50 nM)
C=CC(=O)Nc1cc(Nc2cc(N3OCC[C@@H]3c3cccc4ccccc34)ncn2)c(OC)cc1N1CCC(N2CCN(C3CC3)CC2)CC1 [Example 146, N-(2-(4-(4-cyclopropylpiperazine-1-yl)piperidine-1-yl)-4-methoxy-5-((6-((R)-3-(naphthalene-1-yl)isoxazolidine-2-yl)pyrimidine-4-yl)amino)phenyl)acrylamide]	B (50 nM ≤ GI50 < 500 nM)
C=CC(=O)Nc1cc(Nc2cc(N3OCC[C@@H]3c3ccccc3)ncn2)c(OC)cc1N1CCN(CC2CC2)CC1 [Example 277, N-(2-(4-(cyclopropylmethyl)piperazine-1-yl)-4-methoxy-5-((6-((R)-3-phenylisoxazolidine-2-yl)pyrimidine-4-yl)amino)phenyl) acrylamide]	A (GI50 < 50 nM)
C=CC(=O)Nc1cc(Nc2cc(N3OCC[C@@H]3c3cc(F)cc(F)c3)ncn2)c(OC)cc1N1CCC(N2C[C@@H](C)N(C3CC3)C[C@H]2C)CC1 [Example 114, N-(2-(4-((2R,5R)-4-cyclopropyl-2,5-dimethylpiperazine-1-yl)piperidine-1-yl)-5-((6-((R)-3-(3,5-difluorophenyl)isoxazolidine-2-yl)pyrimidine-4-yl)amino)-4-methoxyphenyl) acrylamide]	A (GI50 < 50 nM)
C=CC(=O)Nc1cc(Nc2cc(N3OCC[C@@H]3c3ccc(C)nc3)ncn2)c(OC)cc1N1CCC(N2CC[C@@H](N(C)C)C2)CC1 [Example 231, N-(2-(4-((R)-3-(dimethylamino)pyrolidine-1-yl)piperidine-1-yl)-4-methoxy-5-((6-((R)-3-(6-methylpyridine-3-yl)isoxazolidine-2-yl)pyrimidine-4-yl)amino)phenyl)acrylamide]	B (50 nM ≤ GI50 < 500 nM)
C=CC(=O)Nc1cc(Nc2cc(N3OCC[C@@H]3c3c(F)ccc(F)c3F)ncn2)c(OC)cc1N1CCC(N2CCN(C3CC3)[C@H](C)C2)CC1 [Example 166, N-(2-(4-((R)-4-cyclopropyl-3-methylpiperazine-1-yl)piperidine-1-yl)-4-methoxy-5-((6-((R)-3-(2,3,6-trifluorophenyl)isoxazolidine-2-yl)pyrimidine-4-yl)amino)phenyl)acrylamide]	A (GI50 < 50 nM)
C=CC(=O)Nc1cc(Nc2cc(N3OCC[C@H]3Cc3cccnc3)ncn2)c(OC)cc1N1CCC(N2CCN(C3CC3)CC2)CC1 [compound 988, N-(2-(4-(4-cyclopropylpiperazine-1-yl)piperidine-1-yl)-4-methoxy-5-((6-((R)-3-(pyridine-3-ylmethyl)isoxazolidine-2-yl)pyrimidine-4-yl)amino)phenyl) acrylamide]	B (50 nM ≤ GI50 < 500 nM)
C=CC(=O)Nc1cc(Nc2cc(N3OCC[C@@H]3c3ccc(F)c(Cl)c3F)ncn2)c(OC)cc1N1CCC(N2CCN(C)CC2)CC1 [compound 605, N-(5-((6-((R)-3-(3-chloro-2,4-difluorophenyl)isoxazolidine-2-yl)pyrimidine-4-yl)amino)-4-methoxy-2-(4-(4-methylpiperazine-1-yl)piperidine-1-yl)phenyl) acrylamide]	A (GI50 < 50 nM)
C=CC(=O)Nc1cc(Nc2cc(N3OCC[C@@H]3Cc3cccc(Cl)c3F)ncn2)c(OC)cc1N1CCC(N2CCN(C3CC3)CC2)CC1 [compound 1020, N-(5-((6-((S)-3-(3-chloro-2-fluorobenzyl)isoxazolidine-2-yl)pyrimidine-4-yl)amino)-2-(4-(4-cyclopropylpiperazine-1-yl)piperidine-1-yl)-4-methoxyphenyl) acrylamide]	A (GI50 < 50 nM)
C=CC(=O)Nc1cc(Nc2cc(N3OCC[C@@H]3Cc3ccccc3)ncn2)c(OC)cc1N1CCC(N(C)C)CC1 [compound 951, N-(5-((6-((S)-3-benzylisoxazolidine-2-yl)pyrimidine-4-yl)amino)-2-(4-(dimethylamino)piperidine-1-yl)-4-methoxyphenyl) acrylamide]	A (GI50 < 50 nM)
C=CC(=O)Nc1cc(Nc2cc(N3OCC[C@@H]3c3ccccc3)ncn2)c(OC)cc1N1CCN(C2COC2)CC1 [Example 18]	A (GI50 < 50 nM)
C=CC(=O)Nc1cc(Nc2cc(N3OCC[C@@H]3Cc3cccnc3)ncn2)c(OC)cc1N1CCC(N2CCN(C3CC3)[C@H](C)C2)CC1 [compound 1056, N-(2-(4-((R)-4-cyclopropyl-3-methylpiperazine-1-yl)piperidine-1-yl)-4-methoxy-5-((6-((S)-3-(pyridine-3-ylmethyl)isoxazolidine-2-yl)pyrimidine-4-yl)amino)phenyl)acrylamide]	B (50 nM ≤ GI50 < 500 nM)
C=CC(=O)Nc1cc(Nc2cc(N3OCC[C@@H]3c3cccc(C#N)c3)ncn2)c(OC)cc1N1CC[C@@H](N(C)C)C1 [compound 395, N-(5-((6-((R)-3-(3-cyanophenyl)isoxazolidine-2-yl)pyrimidine-4-yl)amino)-2-((R)-3-(dimethylamino)pyrolidine-1-yl)-4-methoxyphenyl) acrylamide]	B (50 nM ≤ GI50 < 500 nM)
